Experimental data: patent EP4722213A1, “NITROGEN-CONTAINING FUNCTIONAL GROUP-SUBSTITUTED PYRIDAZINOPYRIDONE DERIVATIVE AND USE THEREOF” (Sichuan Huiyu Pharmaceutical Co., Ltd., priority 2023, dated 2024)
Where two headings read alike, the source gives them in different places.

Tests used:
SOS1 = molecular target: T1, SOS1 (Homo sapiens, UniProt Q07889); assay: biochemical
T1 sequence (Q07889 1-1333): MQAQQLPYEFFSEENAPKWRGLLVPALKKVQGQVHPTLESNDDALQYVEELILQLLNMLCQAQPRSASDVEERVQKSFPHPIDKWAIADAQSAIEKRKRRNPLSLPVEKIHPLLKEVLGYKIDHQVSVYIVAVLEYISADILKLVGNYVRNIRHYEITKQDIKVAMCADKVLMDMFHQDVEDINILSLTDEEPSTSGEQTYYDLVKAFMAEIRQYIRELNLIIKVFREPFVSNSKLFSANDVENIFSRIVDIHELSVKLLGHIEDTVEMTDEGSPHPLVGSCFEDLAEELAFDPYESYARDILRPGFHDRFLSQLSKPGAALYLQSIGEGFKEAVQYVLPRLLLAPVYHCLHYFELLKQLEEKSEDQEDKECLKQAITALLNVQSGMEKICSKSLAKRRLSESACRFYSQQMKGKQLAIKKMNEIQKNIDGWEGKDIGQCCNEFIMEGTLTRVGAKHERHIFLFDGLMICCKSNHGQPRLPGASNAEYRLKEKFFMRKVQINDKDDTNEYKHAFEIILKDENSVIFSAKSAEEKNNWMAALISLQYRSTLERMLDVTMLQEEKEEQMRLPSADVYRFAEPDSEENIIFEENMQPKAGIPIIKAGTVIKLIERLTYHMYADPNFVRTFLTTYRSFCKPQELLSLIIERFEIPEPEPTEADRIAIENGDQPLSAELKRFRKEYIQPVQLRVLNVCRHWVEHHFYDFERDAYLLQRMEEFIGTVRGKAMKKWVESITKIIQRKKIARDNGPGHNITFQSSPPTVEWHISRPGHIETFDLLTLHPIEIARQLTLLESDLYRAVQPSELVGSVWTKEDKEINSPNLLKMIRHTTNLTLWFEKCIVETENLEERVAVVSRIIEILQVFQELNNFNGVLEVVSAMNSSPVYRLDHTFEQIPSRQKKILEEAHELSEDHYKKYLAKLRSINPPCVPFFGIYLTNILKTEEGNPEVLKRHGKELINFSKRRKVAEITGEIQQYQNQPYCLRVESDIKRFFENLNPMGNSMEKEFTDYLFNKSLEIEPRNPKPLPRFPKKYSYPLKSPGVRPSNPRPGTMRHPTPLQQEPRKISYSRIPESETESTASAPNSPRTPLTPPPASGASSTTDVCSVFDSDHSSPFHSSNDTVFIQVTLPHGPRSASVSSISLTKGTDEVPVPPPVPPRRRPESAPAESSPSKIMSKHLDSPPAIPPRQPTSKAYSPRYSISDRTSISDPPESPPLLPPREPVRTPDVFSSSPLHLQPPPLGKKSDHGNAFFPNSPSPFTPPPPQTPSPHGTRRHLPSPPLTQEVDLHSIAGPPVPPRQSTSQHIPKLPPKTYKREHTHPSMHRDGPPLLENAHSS

[1] = test system: NCI-H358 non-small cell lung cancer cells; assay: Inhibition of NCI-H358 cell proliferation (CellTiter-Glo 3D, 7 days); format: cell-based; details: Homo sapiens, NCI-H358, 168 h, 3D microspheres, read-out: Inhibitory activity against NCI-H358 cell proliferation (IC50)
How it was run: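 NCI-H358 cells at 2000/well in ultra-low attachment plates grown overnight into spheroids, then exposed to 8-point 5-fold compound dilutions in RPMI-1640/10% FBS for 7 days at 37 °C. Viability by CellTiter-Glo 3D luminescence; inhibition relative to no-inhibitor and cell-free controls.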

CYP3A4 = molecular target: T2, CYP3A4 (Homo sapiens, UniProt P08684); assay: Inhibition of hepatic drug-metabolizing enzymes in human liver microsomes (substrates midazolam and testosterone); format: in vitro ADME
T2 construct: human liver microsomes were used as the CYP450 enzyme source; from tissue; host or cells: human liver microsomes
T2 sequence (P08684 whole entry): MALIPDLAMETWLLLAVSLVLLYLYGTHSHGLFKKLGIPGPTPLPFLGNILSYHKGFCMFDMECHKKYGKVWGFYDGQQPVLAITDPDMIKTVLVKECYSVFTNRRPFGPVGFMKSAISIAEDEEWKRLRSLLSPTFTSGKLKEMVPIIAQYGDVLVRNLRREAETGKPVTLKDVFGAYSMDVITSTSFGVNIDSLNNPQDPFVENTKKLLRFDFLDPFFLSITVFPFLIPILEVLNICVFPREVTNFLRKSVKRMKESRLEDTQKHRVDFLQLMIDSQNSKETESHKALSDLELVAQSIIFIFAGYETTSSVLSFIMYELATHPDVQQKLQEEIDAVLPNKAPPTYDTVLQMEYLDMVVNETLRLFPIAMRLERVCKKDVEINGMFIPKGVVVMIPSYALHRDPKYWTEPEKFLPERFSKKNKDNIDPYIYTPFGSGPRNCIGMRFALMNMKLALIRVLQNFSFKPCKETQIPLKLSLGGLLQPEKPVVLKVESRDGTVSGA
From the text: The main site of drug metabolism is the liver, and the main component of the mixed-function oxidase system present in the liver is the CYP450 enzyme. This enzyme system causes most clinically observed drug-drug interactions, which in turn leads to an increased incidence of adverse drug reactions. CYP450 is a group of supergene family composed of many isozymes, wherein CYP3A4 acts as a major metabolizing enzyme and is involved in the metabolism of nearly half of clinically used drugs. Similarly, CYP2C9 and CYP2C19 also act as important metabolizing enzymes and are involved in the metabolism of various drugs clinically. Therefore, evaluating the risk of drug-drug interactions by testing the inhibitory activity of compounds on CYP450 enzymes at an early stage can improve the safety of medication use.
In the present disclosure, human liver microsomes were used as the CYP450 enzyme source. The specific probe substrates for each CYP isoenzyme (wherein CYP3A4 used two substrates, midazolam and testosterone, denoted as CYP3A4-M and CYP3A4-T respectively) were incubated with a series of concentrations of the test compound in the presence of the cofactor NADPH. The production amount of metabolites of probe substrates in the incubation system was determined by LC-MS/MS, and the IC50 values of the test compound against each CYP450 enzyme subtype were calculated to evaluate its inhibitory effect on each CYP450 enzyme subtype. During the experiment, 49 µL of PBS, 50 µL of probe substrate, and 50 µL of human liver microsome working solution were sequentially added to the incubation system, followed by the addition of 1 µL of the test compound working solution at each concentration, and the mixture was mixed well. After pre-incubation at 37°C for 5 min, 50 µL of NADPH was added to initiate the reaction. After incubation for the corresponding time, an appropriate amount of ice-cold acetonitrile containing an internal standard was added to terminate the reaction. The mixture was vortexed to mix well, centrifuged, and the supernatant was taken. The supernatant was injected into LC-MS/MS to determine the production amount of metabolites of the probe substrate. Taking the enzyme activity at the 0-concentration point (characterized by the production amount of metabolites) as 100%, the percentage of residual enzyme activity of metabolites at different concentrations of the test compound was calculated. IC50 was calculated by the residual enzyme activity using Graphpad Prism software.

[2] = substrate midazolam, read-out: Inhibitory activity on drug-metabolizing enzymes (IC50, µM) CYP3A4-M
[3] = substrate testosterone, read-out: Inhibitory activity on drug-metabolizing enzymes (IC50, µM) CYP3A4-T

Structure (SMILES)	IC50 (SOS1)	IC50 [1]	IC50 (CYP3A4; [2])	IC50 (CYP3A4; [3])
C[C@@H](Nc1nnc(N2CCN(C)CC2)c2cc(=O)n(C3(C)CC3)cc12)c1cccc(C(F)F)c1F.O=CO [Example 80, (R)-4-((1-(3-(difluoromethyl)-2-fluorophenyl)ethyl)amino)-6-(1-methylcyclopropyl)-1-(4-methylpiperazin-1-yl)pyrido[3,4-d]pyridazin-7(6H)-one formate]	0.0045 µM	0.0208 µM	> 10 µM	> 10 µM
CCN1CCN(c2nnc(N[C@H](C)c3cccc(C(F)F)c3F)c3cn(C4CCC4)c(=O)cc23)CC1 [Example 112, (R)-6-cyclobutyl-4-((1-(3-(difluoromethyl)-2-fluorophenyl)ethyl)amino)-1-(4-ethylpiperazin-1-yl)pyrido[3,4-d]pyridazin-7(6H)-one]	0.005 µM	0.0202 µM	> 10 µM	> 10 µM
